Counter-ions that a name gives are not always drawn. Like-named read-outs stand apart in the source and are kept apart here. Blank lines part the entries; values can stand above or below the compound they belong to.
Assay type: in vitro ADME, rabbit
Experimental: Previously harvested pieces of rabbit large bowel (surface area 1.767 cm^2) were mounted in an Improved Franz Diffusion Cell containing 0.9% saline (13ml) as the receptor medium. The vaginal cream of Example 3 (1.0 g) was applied directly to the rabbit tissue; the experiments were performed in triplicate.
Aliquots of 1.0 ml (which were replaced with fresh saline solution) were withdrawn from the receptor chamber at 1, 3, 6, 20, 24, 48 hours. LN in samples was quantified using high performance liquid chromatography (Hewlett Packard, model 1090,series II, fitted with Hypersil C18, 5 μm, 25 cm×4.6 mm column, a UV detector set at 241 nm and an acetonitrile(80%)-water(20%) mobile phase).
Accurately weighed portions of the LN-vaginal cream as well as the cream recovered from the diffusion cells were extracted with 20 ml methanol for 16 hr on a wrist-action shaker and analyzed. […] The replicate results along with an average are plotted.
The permeation studies were conducted as described in Example 12 except that the HPLC analysis was modified; a Spectra Physics, Model SP8800, fitted with Alltima phenyl, 5 micron, 15 cm×4.6 mm column, and a UV detector set at 223 nm was used with an acetonitrile (40%)-0.1% phosphoric acid mobile phase. […]

- average permeation rate through the mucosal tissue (rabbit, 24 h): 103.8 μg/cm^2/hr
Compound: CC(C)(C)NC[C@H](O)COc1nsnc1N1CCOCC1 [timolol maleate]

- average permeation rate through the mucosal tissue (rabbit, 48 h, 5 mg per pellet): 97.3 μg/cm^2/hr
- average permeation rate through the mucosal tissue (rabbit, 48 h, 10 mg per pellet): 182 μg/cm^2/hr
Compound: CN(C)CCC(c1ccc(Cl)cc1)c1ccccn1 (stereo not shown) [chlorpheniramine maleate]

- concentration of LN in the cream recovered following the permeation study: 3.101 ± 0.315 mg/g
- amount of levonorgestrel released through normal tissue (rabbit, 48 h, 3 mg/g): less than 0.5%
- permeation rate of hormone that diffused through the tissue from the cream (rabbit, 48 h, 3 mg/g): 0.163±0.010 μg/cm^2/hr
Compound: C#C[C@]1(O)CC[C@H]2[C@@H]3CCC4=CC(=O)CC[C@@H]4[C@H]3CC[C@@]21CC [levonorgestrel]

- average permeation rate through the mucosal tissue: 160.8 μg/cm^2/hr
Compound: CC(=O)O.CC(=O)O.NC(=N\CCCCCC/N=C(N)/N=C(\N)Nc1ccc(Cl)cc1)/N=C(\N)Nc1ccc(Cl)cc1 [chlorhexidine diacetate]

Reference: patent US6809085B1, “Adherent N,O-Carboxymethylchitosan drug delivery devices for moist tissue and methods of their use” (Chitogenics, Inc., priority 1999, dated 2004)
